In patent US7998950B2, “Antiviral compounds” (Gilead Sciences, Inc., priority 2008, dated 2011) one finds EC50 data, which are given here for 65 compounds.

Molecules are shown by their SMILES.

For the first test, the system named is HIV-IIIb. Put plainly: Antiviral assay in MT-2 cells infected with HIV-IIIb. It counts as cell-based. To be noted: Human immunodeficiency virus 1, IIIB, MT2, 120 h, MT-2 cells infected with HIV-IIIb, m.o.i. 0.01, 10% FBS, 5 days at 37° C., CellTiter-Glo chemiluminescence; read-out: EC50 in MT-2 cells. For orientation: Cellular ATP, detected with luciferase, serves as a proxy for viable cell number.
By EC50 is commonly meant the midpoint of the concentration-response curve. Turning to `N#CCCNC(=O)c1c(O)c2ncc(Cc3ccc(F)cc3)c3c2n(c1=O)CC(F)(F)CN3` [A-9], the concentration giving a half-maximal response (EC50) stood at 4 nM. On the same count and under the same terms, to `COCCNC(=O)c1c(O)c2ncc(Cc3ccc(F)cc3)c3c2n(c1=O)CC(F)(F)CN3` [A-10] belongs 4 nM; to `O=C(NCC1(O)CC1)c1c(O)c2ncc(Cc3ccc(F)cc3)c3c2n(c1=O)CC(F)(F)CN3` [A-11], 3.5 nM.

Take `CCNC(=O)c1c(O)c2ncc(Cc3ccc(F)cc3)c3c2n(c1=O)CC(F)(F)CN3` [A-12]: the EC50 came to 3 nM. Take `C[C@@H](CO)NC(=O)c1c(O)c2ncc(Cc3ccc(F)cc3)c3c2n(c1=O)CC(F)(F)CN3` [A-13]: the half-maximal effective concentration (EC50) was determined as 6.5 nM. On the same count and under the same terms, to `CC(C)(O)CNC(=O)c1c(O)c2ncc(Cc3ccc(F)cc3)c3c2n(c1=O)CC(F)(F)CN3` [A-14] belongs 7 nM. In the case of `O=C(NCCCO)c1c(O)c2ncc(Cc3ccc(F)cc3)c3c2n(c1=O)CC(F)(F)CN3` [A-15], the EC50 is 4 nM. Take `N#CCCCNC(=O)c1c(O)c2ncc(Cc3ccc(F)cc3)c3c2n(c1=O)CC(F)(F)CN3` [A-17]: the EC50 worked out at 2.5 nM.

Take `O=C(NC1CC(O)C1)c1c(O)c2ncc(Cc3ccc(F)cc3)c3c2n(c1=O)CC(F)(F)CN3` (centres unmarked) [A-18]: the EC50 turned out to be 7 nM.

As for `CNC(=O)c1c(O)c2ncc(Cc3ccc(F)cc3)c3c2n(c1=O)CC(CO)O3` (centres unmarked) [A-25], the EC50 came out at 5.5 nM. On to `O=C(NCCO)c1c(O)c2ncc(Cc3ccc(F)cc3)c3c2n(c1=O)CC(CO)O3` (centres unmarked) [A-26], for which the 50% effective concentration (EC50) was 16 nM. As to `COCCNC(=O)c1c(O)c2ncc(Cc3ccc(F)cc3)c3c2n(c1=O)CC(CO)O3` (centres unmarked) [A-27], the half-maximal effective concentration (EC50) is 4 nM. With `O=C(NCCCN1CCCC1)c1c(O)c2ncc(Cc3ccc(F)cc3)c3c2n(c1=O)CC(CO)O3` (centres unmarked) [A-28], the EC50 was 51 nM.

Turning to `COCC1Cn2c(=O)c(C(=O)NCCO)c(O)c3ncc(Cc4ccc(F)cc4)c(c32)O1` (centres unmarked) [A-31], the 50% effective concentration (EC50) was determined as 1.5 nM. For the compound `CNC(=O)c1c(O)c2ncc(Cc3ccc(F)cc3)c3c2n(c1=O)CC(C(=O)N(C)C)O3` (centres unmarked) [A-35], the concentration for a half-maximal effect (EC50) worked out at 5.7 nM. Same read-out and setting: the result for `CNC(=O)c1c(O)c2ncc(Cc3ccc(F)cc3)c3c2n(c1=O)C[C@H](C(=O)NC)O3` [A-50] reads 6.8 nM; that for `CNC(=O)c1c(O)c2ncc(Cc3ccc(F)cc3)c3c2n(c1=O)C[C@@H](C(=O)NC)O3` [A-65], 6.3 nM; that for `CNC(=O)c1c(O)c2ncc(Cc3ccc(F)cc3)c3c2n(c1=O)C[C@@H](CO)O3` [A-67], 1.7 nM. Consider `CNC(=O)c1c(O)c2ncc(Cc3ccc(F)cc3)c3c2n(c1=O)C[C@H](CO)O3` [A-69], for which the EC50 stood at 4 nM.

Regarding `CNC(=O)C1=Cn2c(=O)c(C(=O)NC)c(O)c3ncc(Cc4ccc(F)cc4)c(c32)O1` [A-82], the EC50 worked out at 8 nM.

As for `CNC(=O)c1c(O)c2ncc(Cc3ccc(F)cc3)c3c2n(c1=O)C=C(C(=O)N1CCOCC1)O3` [A-83], the EC50 came to 37 nM. As for `CNC(=O)c1c(O)c2ncc(Cc3ccc(F)cc3)c3c2n(c1=O)C=C(C(=O)NC1CC1)O3` [A-85], the EC50 turned out to be 4 nM.

Turning to `CNC(=O)C1=Cn2c(=O)c(C(=O)NCCOC)c(O)c3ncc(Cc4ccc(F)cc4)c(c32)O1` [A-87], the EC50 worked out at 3.6 nM. As to `CNC(=O)C1=Cn2c(=O)c(C(=O)NCCC#N)c(O)c3ncc(Cc4ccc(F)cc4)c(c32)O1` [A-88], the 50% effective concentration (EC50) worked out at 18 nM.

With `CNC(=O)C1=Cn2c(=O)c(C(=O)NCCO)c(O)c3ncc(Cc4ccc(F)cc4)c(c32)O1` [A-89], the EC50 came to 23 nM. With `CCNC(=O)C1=Cn2c(=O)c(C(=O)NC)c(O)c3ncc(Cc4ccc(F)cc4)c(c32)O1` [A-90], the EC50 was 2.9 nM. On to `CNC(=O)c1c(O)c2ncc(Cc3ccc(F)cc3)c3c2n(c1=O)C=C(C(=O)N1CC(F)(F)C1)O3` [A-92], for which the concentration giving a half-maximal response (EC50) worked out at 21 nM. For `CNC(=O)c1c(O)c2ncc(Cc3ccc(F)cc3)c3c2n(c1=O)C=C(C(=O)NC(CO)CO)O3` [A-94], the EC50 worked out at 49 nM. Turning to `CCN(CC)C(=O)C1=Cn2c(=O)c(C(=O)NC)c(O)c3ncc(Cc4ccc(F)cc4)c(c32)O1` [Example 103], the concentration for a half-maximal effect (EC50) was determined as 10 nM. On the same count and under the same terms, the result for `CCNC(=O)C1=Cn2c(=O)c(C(=O)NCCOC)c(O)c3ncc(Cc4ccc(F)cc4)c(c32)O1` [Example 104] reads 3 nM; that for `CCN(CC)C(=O)C1=Cn2c(=O)c(C(=O)NCCOC)c(O)c3ncc(Cc4ccc(F)cc4)c(c32)O1` [Example 105], 71 nM. With `COCCNC(=O)c1c(O)c2ncc(Cc3ccc(F)cc3)c3c2n(c1=O)C=C(C(=O)NCC1(O)CC1)O3` [Example 106], the EC50 was found to be 6 nM. On to `CNC(=O)c1c(O)c2ncc(Cc3ccc(F)cc3)c3c2n(c1=O)C=C(C(=O)N1CCOCC1(C)C)O3` [Example 107], for which the EC50 was found to be 25 nM. Take `COCCNC(=O)c1c(O)c2ncc(Cc3ccc(F)cc3)c3c2n(c1=O)C=C(C(=O)N1CCOCC1(C)C)O3` [Example 108]: the EC50 was 7.5 nM. The same measure, in the same setting: the result for `COCCNC(=O)c1c(O)c2ncc(Cc3ccc(F)cc3)c3c2n(c1=O)C=C(C(=O)NCCN1CCCC1)O3` [Example 109] reads 37.5 nM. As to `COCCNC(=O)c1c(O)c2ncc(Cc3ccc(F)cc3)c3c2n(c1=O)C=C(C(=O)N1CCN(CC(F)(F)F)CC1)O3` [Example 110], the half-maximal effective concentration (EC50) turned out to be 27.4 nM. On to `CCNC(=O)C1=Cn2c(=O)c(C(=O)NCCC#N)c(O)c3ncc(Cc4ccc(F)cc4)c(c32)O1` [Example 112], for which the concentration for a half-maximal effect (EC50) came out at 11.7 nM. Take `CNC(=O)c1c(O)c2ncc(Cc3ccc(F)cc3)c3c2n(c1=O)C=C(C(=O)NCCOC)O3` [Example 113]: the EC50 amounted to 5.3 nM. Take `COCCNC(=O)C1=Cn2c(=O)c(C(=O)NCCOC)c(O)c3ncc(Cc4ccc(F)cc4)c(c32)O1` [Example 114]: the EC50 turned out to be 6.4 nM. For `CNC(=O)c1c(O)c2ncc(Cc3ccc(F)cc3)c3c2n(c1=O)C=C(C(=O)NCC(F)(F)F)O3` [Example 115], the EC50 came out at 3.9 nM.

With `[2H]C([2H])([2H])NC(=O)c1c(O)c2ncc(Cc3ccc(F)cc3)c3c2n(c1=O)C=C(C(=O)NCC)O3` [Example 116], the EC50 is 2.5 nM. Regarding `CNC(=O)c1c(O)c2ncc(Cc3ccc(F)cc3)c3c2n(c1=O)C=C(C(=O)NCC(C)(C)N1CCOCC1)O3` [Example 117], the concentration for a half-maximal effect (EC50) was 14 nM. On the same count and under the same terms, the result for `CNC(=O)c1c(O)c2ncc(Cc3ccc(F)c(Cl)c3)c3c2n(c1=O)C=C(C(=O)NCC(C)(C)C#N)O3` [Example 118] reads 0.7 nM. In the case of `CNC(=O)c1c(O)c2ncc(Cc3ccc(F)cc3)c3c2n(c1=O)C=C(C(=O)NCC(C)(C)N(C)C)O3` [Example 119], the concentration for a half-maximal effect (EC50) came out at 2.4 nM.

Consider `CNC(=O)c1c(O)c2ncc(Cc3ccc(F)cc3)c3c2n(c1=O)C=C(C(=O)NC(C)(C)CNC(=O)OC(C)(C)C)O3` [Example 120], for which the EC50 was determined as 19 nM. Consider `CNC(=O)c1c(O)c2ncc(Cc3ccc(F)cc3)c3c2n(c1=O)C=C(C(=O)NC(C)(C)CN)O3` [Example 121], for which the 50% effective concentration (EC50) came out at 5.8 nM. Consider `CNC(=O)c1c(O)c2ncc(Cc3ccc(F)cc3)c3c2n(c1=O)C=C(C(=O)NCC(C)(C)NC(=O)c1nnc(C)o1)O3` [Example 122], for which the half-maximal effective concentration (EC50) was 64 nM. Regarding `CNC(=O)c1c(O)c2ncc(Cc3ccc(F)cc3)c3c2n(c1=O)C=C(C(=O)NCC(C)(C)N)O3` [Example 123], the EC50 was found to be 35 nM. As to `CNC(=O)c1c(O)c2ncc(Cc3ccc(F)cc3)c3c2n(c1=O)C=C(C(=O)NC(C)(C)CO)O3` [Example 126], the 50% effective concentration (EC50) is 3.3 nM.

Turning to `COCCNC(=O)c1c(O)c2ncc(Cc3ccc(F)cc3)c3c2n(c1=O)C=C(C(=O)NC(C)(C)CO)O3` [Example 127], the EC50 turned out to be 5 nM.

As to `CC(C)(CO)NC(=O)C1=Cn2c(=O)c(C(=O)NC3CC3)c(O)c3ncc(Cc4ccc(F)cc4)c(c32)O1` [Example 128], the EC50 amounted to 7.1 nM. On to `CNC(=O)c1c(O)c2ncc(Cc3ccc(F)cc3)c3c2n(c1=O)C=C(C(=O)N1CCCCC1)O3` [Example 131], for which the concentration for a half-maximal effect (EC50) was 13.9 nM. Consider `N#CCCNC(=O)c1c(O)c2ncc(Cc3ccc(F)cc3)c3c2n(c1=O)C=C(C(=O)N1CCCCC1)O3` [Example 132], for which the concentration giving a half-maximal response (EC50) came out at 37.4 nM. On to `CNC(=O)c1c(O)c2ncc(Cc3ccc(F)cc3)c3c2n(c1=O)C=C(C(=O)NCC1(O)CC1)O3` [Example 133], for which the concentration giving a half-maximal response (EC50) came out at 7 nM. Regarding `CNC(=O)c1c(O)c2ncc(Cc3ccc(F)cc3)c3c2n(c1=O)C=C(C(=O)NCC(C)(C)C#N)O3` [Example 134], the EC50 was determined as 2.5 nM. Consider `CC(C)(C#N)CNC(=O)C1=Cn2c(=O)c(C(=O)NC3CC3)c(O)c3ncc(Cc4ccc(F)cc4)c(c32)O1` [Example 135], for which the EC50 is 2.7 nM.

With `CNC(=O)c1c(O)c2ncc(Cc3ccc(F)cc3)c3c2n(c1=O)C=C(C(=O)NC(C)(C)C)O3` [Example 136], the concentration for a half-maximal effect (EC50) was 7.2 nM.

`CNC(=O)c1c(O)c2ncc(Cc3ccc(F)cc3)c3c2n(c1=O)C=C(C(=O)NCC1(C#N)CC1)O3` [Example 138]: the half-maximal effective concentration (EC50) came to 1.5 nM.

The test is the same for the next values; noted with them: Human immunodeficiency virus 1, IIIB, MT2, 120 h, read-out: EC50 in MT-2 cells (nM).
In the case of `CNC(=O)c1c(O)c2ncc(Cc3ccc(F)cc3)c3c2n(c1=O)C=C(C(=O)N(C)C)O3` [A-81], the concentration giving a half-maximal response (EC50) was determined as 10.5 nM.

As for `CNC(=O)c1c(O)c2ncc(Cc3ccc(F)cc3)c3c2n(c1=O)C=C(C1=NC(C)(C)CO1)O3` [Example 129], the EC50 turned out to be 2.2 nM.

With `CNC(=O)c1c(O)c2ncc(Cc3ccc(F)cc3)c3c2n(c1=O)C=C(c1nnc(C)o1)O3` [Example 130], the EC50 was 4.6 nM. The same measure, in the same setting: the result for `CNC(=O)c1c(O)c2ncc(Cc3ccc(F)cc3)c3c2n(c1=O)C=C(COC)O3` [Example 137] reads 5 nM.

The same test, now with this note: MT-2 cells infected with HIV-IIIb, m.o.i. 0.01, 10% FBS, 5 days at 37° C., CellTiter-Glo chemiluminescence; listed as A-177; read-out: EC50 in MT-2 cells.
With `CCN(CC)C(=O)C1=Cn2c(=O)c(C(=O)NC)c(O)c3ncc(Cc4ccc(F)cc4)c(c32)O1` [Example 125], the 50% effective concentration (EC50) was determined as 5.5 nM.

The same test, now with this note: MT-2 cells infected with HIV-IIIb, m.o.i. 0.01, 10% FBS, 5 days at 37° C., CellTiter-Glo chemiluminescence; read-out: EC50 in MT-2 cells.
`CCN(CC)C(=O)C1=Cn2c(=O)c(C(=O)NC)c(O)c3ncc(Cc4ccc(F)cc4)c(c32)O1` [A-91]: the concentration giving a half-maximal response (EC50) worked out at 10 nM. Same read-out and setting: the result for `CNC(=O)c1c(O)c2ncc(Cc3ccc(F)cc3)c3c2n(c1=O)CC(CO)(CO)O3` [A-109] reads 7.1 nM.
